According to article PMC9841524, “Structure-Based Rational Design of Small α-Helical Peptides with Broad-Spectrum Activity against Multidrug-Resistant Pathogens” (Journal of Medicinal Chemistry, 2022):
Where two headings read alike, the source gives them in different places. Where no end group is shown, it is not given here.

Tests used:
[1] = tested on: human red blood cells (hRBCs); assay: Hemolytic assay; type: cell-based; details: 2 h, 37 °C
How it was run: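 Percent hemolysis uses PBS as 0% and 1% Triton X-100 as 100% references, from supernatant absorbance at 567 nm. Red cells (4% in PBS, equal volume) exposed 2 h at 37 °C without agitation to 2-fold serially diluted peptide.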

[2] = tested on: K. pneumoniae (ATCCBAA-1705); assay: MIC, standard microtiter dilution (CLSI); type: cell-based, Klebsiella pneumoniae; details: broth microdilution (CLSI), CAMHB, 37 °C, 24 h
How it was run: (§1)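 Broth microdilution per CLSI: overnight cultures diluted in cation-adjusted Mueller Hinton Broth to 10^6 CFU/mL, mixed with 2-fold serial peptide dilutions, incubated 37 °C for 24 h. MIC = lowest peptide concentration inhibiting growth. Three independent assays in triplicate.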

[3] = Relative hydrophobicity as RP-HPLC retention time; type: physicochemical; details: chromatographic, Phenomenex Luna C18 4 μm 150 × 4.6 mm, linear AB gradient 1% acetonitrile/min, 0.3 mL/min, A water 0.1% TFA, B acetonitrile 0.1% TFA, 25 °C
Description: The purity analysis of the peptides was conducted on a RP-HPLC system (Shimadzu; LC-20ADXR) by using a Phenomenex (Luna) analytical C18 column (4 μm, 150 × 4.6 mm). The mass of the purified peptides was determined in the positive-ion mode using Q-TOF LC/MS (Compass Hystar 4.1, Bruker, USA). The purity (>95%) and mass data of all the synthesized peptides are provided in the Supporting Information.
8. Comparative Hydrophobicity analysis
The purity of all synthesized peptides was determined using reverse phase analytical HPLC
(Shimadzu; LC-20ADXR). Below mentioned are the conditions used to conduct the purity
Column: Phenomenex (Luna), 4 um, C18, 150 × 4.6 mm
Mobile Phase: Buffer A-Water containing 0.1% TFA,
Buffer B-Acetonitrile containing 0.1% TFA
Figure S52. HPLC chromatogram of 6a.
(1 picture or pasted object on this page, not shown here)

S. aureus (ATCC 29213) = assay: MIC, standard microtiter dilution (CLSI); type: cell-based; details: for MIC, S. aureus (ATCC 29213): broth microdilution (CLSI), CAMHB, 37 °C, 24 h
How it was run: as §1

[4] = tested on: P. aeruginosa (ATCC 27883); assay: MIC, standard microtiter dilution (CLSI); type: cell-based, Pseudomonas aeruginosa; details: broth microdilution (CLSI), CAMHB, 37 °C, 24 h
How it was run: as §1

MRSA (ATCC BAA-1556) = details: broth microdilution (CLSI), CAMHB, 37 °C, 24 h
How it was run: as §1

E. coli (ATCC 25922) = details: broth microdilution (CLSI), CAMHB, 37 °C, 24 h
How it was run: as §1

[5] = CD spectroscopy, helicity; type: physicochemical; parameters: key to Δ[θ]222 induced by TFE / Δ[θ]222 induced by Liposomes: mean residue molar ellipticity, mdeg cm2/(dmol × res); details: for [θ]222 mean residue molar ellipticity, TFE / [θ]222 mean residue molar ellipticity, Liposomes / [θ]222 mean residue molar ellipticity, PBS: CD at 222 nm, 25 °C; for [θ]222 mean residue molar ellipticity, TFE: aqueous buffer containing 50% TFE; for [θ]222 mean residue molar ellipticity, Liposomes / Δ[θ]222 induced by Liposomes: bacterial membrane mimicking liposomes; for [θ]222 mean residue molar ellipticity, Liposomes: peptide:lipid molar ratio 1:1.05; for [θ]222 mean residue molar ellipticity, PBS: phosphate buffer saline pH 7.0; for Δ[θ]222 induced by TFE / Δ[θ]222 induced by Liposomes: difference to PBS; for Δ[θ]222 induced by TFE: 50% TFE; for % of helicity induced by TFE: increase in molar ellipticity at 222 nm in the presence of 50% TFE; for % of helicity induced by Liposomes: increase in molar ellipticity at 222 nm in the presence of liposomes;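 on % of helicity induced by Liposomes: share of the total helicity with liposomes gained over the same peptide in PBS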;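 on % of helicity induced by TFE: share of the total helicity in TFE gained over the same peptide in PBS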
Description: The CD spectra of peptides were recorded using a Jasco J-1500 CD spectrophotometer (Jasco, Easton, MD) at 25 °C with a 1 mm path length cell. Wavelengths from 190 to 260 nm were scanned with 1.0 nm step resolution, 100 nm/min speed, 0.4 s response time, and 1 nm bandwidth. CD spectra of the peptides were collected and averaged over three scans in 10 mM sodium phosphate buffer (pH 7.2), helix-inducing solvent 50% TFE (v/v), and bacterial mimic liposomes (75 μM lipid). Spectra were corrected by subtracting a baseline spectrum containing only buffer or 50% TFE or liposomes. The mean residue molar ellipticity was calculated using the formula [drawing 3] where Ab222 is the absorbance observed at 222 nm, MRW is the mean residue molecular weight, C is the concentration in mg/mL, and L is the path length.
Table S1. RP-HPLC retention times and CD spectroscopy analysis of the selected peptides Peptide tR (min)a [θ]222b Δ[θ]222 induced by % of helicity inducedc by PBS TFE Liposomes TFE Liposomes TFE Liposomes […]
atR (min) denotes the retention time at 25°C by RP-HPLC. bThe mean residue molar ellipticity [θ] 222 (mdeg cm2/(dmol × res)) at 222 nm was measured at 25 °C in phosphate buffer saline (PBS, pH 7.0), in aqueous buﬀer containing 50% TFE (TFE), or in presence of bacterial membrane mimicking liposomes (peptide:lipid […]
c% helix induced is the increase in the molar ellipticity at 222 nm (in percentage) of a peptide in the presence of TFE or liposomes.

[6] = hRBC suspension 4% in PBS, hemoglobin release at 567 nm, 1% Triton X-100 = 100%
[7] = value in parentheses (μM), hRBC 4% in PBS, 567 nm
[8] = 10^6 CFU/mL, highest MIC of three independent experiments in triplicate

Substance	HC50 (concentration at which 50% hemolysis was observed) [1, 6] [µg/mL]	HC50 (concentration at which 50% hemolysis was observed) [1, 7] [µM]	MIC, K. pneumoniae (ATCCBAA-1705) [2, 8] [µg/mL]	MIC, K. pneumoniae (ATCCBAA-1705) ([2]; value in parentheses (μM)) [µM]	tR, RP-HPLC retention time (measure of overall hydrophobicity) [3] [min]	MIC, S. aureus (ATCC 29213) (S. aureus (ATCC 29213); [8]) [µg/mL]	MIC, S. aureus (ATCC 29213) (S. aureus (ATCC 29213); value in parentheses (μM)) [µM]	MIC, P. aeruginosa (ATCC 27883) [4, 8] [µg/mL]	MIC, P. aeruginosa (ATCC 27883) ([4]; value in parentheses (μM)) [µM]	MIC, MRSA (ATCC BAA-1556) (MRSA (ATCC BAA-1556); [8]) [µg/mL]	MIC, MRSA (ATCC BAA-1556) (MRSA (ATCC BAA-1556); value in parentheses (μM)) [µM]	MIC, E. coli (ATCC 25922) (E. coli (ATCC 25922); [8]) [µg/mL]	MIC, E. coli (ATCC 25922) (E. coli (ATCC 25922); value in parentheses (μM)) [µM]	[θ]222 mean residue molar ellipticity, TFE [5]	[θ]222 mean residue molar ellipticity, Liposomes [5]	[θ]222 mean residue molar ellipticity, PBS [5]	Δ[θ]222 induced by TFE [5]	Δ[θ]222 induced by Liposomes [5]	% of helicity induced by TFE [5] [%]	% of helicity induced by Liposomes [5] [%]	further results
KWLKKWWKWWKK-NH2 [8e]	240	131.13	25	13.66	34.10	12.5	6.83	12.5	6.83	12.5	6.83	12.5	6.83	-11148 mdeg cm2/(dmol × res)	-15042 mdeg cm2/(dmol × res)	-5411 mdeg cm2/(dmol × res)	-5736	-9630	51.45	64.02	
Ac-KWAKKWAKWWKK-NH2 [6d]	345	201.15	100	58.30	32.81	50	29.15	100	58.30	100	58.30	100	58.30	-18432 mdeg cm2/(dmol × res)	-24274 mdeg cm2/(dmol × res)	-13464 mdeg cm2/(dmol × res)	-4968	-10810	26.95	44.53	
Ac-RWARRWARWWRR-NH2 [6c]	110	58.41	> 100	> 53.10	34.61	50	26.55	100	53.10	50	26.55	100	53.10	-18280 mdeg cm2/(dmol × res)	-20250 mdeg cm2/(dmol × res)	-10947 mdeg cm2/(dmol × res)	-7332	-9303	40.11	45.93	
Ac-RWIRRWIRWWRR-NH2 [7c]	40	20.33	25	12.70	40.63	6.2	3.15	6.2	3.15	6.2	3.15	12.5	6.35	-10279 mdeg cm2/(dmol × res)	-19297 mdeg cm2/(dmol × res)	-3192 mdeg cm2/(dmol × res)	-7087	-16105	68.94	83.45	
RWARRWARWWRR-NH2 [6a]	230	124.92	> 100	> 54.31	30.42	50	27.16	100	54.31	50	27.16	> 100	> 54.31	-13346 mdeg cm2/(dmol × res)	-13245 mdeg cm2/(dmol × res)	-6737 mdeg cm2/(dmol × res)	-6608	-6508	49.51	49.13	MIC against S. aureus (S. aureus (ATCC 29213)): 50 µg/mL; increase in helicity in the presence of liposomes, as compared to PBS ([5]; CD): about 50%
